Earlier results in patent US12668568B2, “Adamantanyl-substituted benzamide compounds and their use as P2X7 receptor antagonists” (The University of Sydney, priority 2018, dated 2026).

Conditions: literature log D7.4 values; cited from earlier work

SMILES | log D7.4 of calibration standards
CC(C)=O [acetone] | −0.24
Nc1ccccc1 [aniline] | 0.90
c1ccc(N(c2ccccc2)c2ccccc2)cc1 [triphenylamine] | 5.74
